From US20250302816A1, “DISRUPTION OF EPITHELIAL BARRIERS FOR MOLECULAR DELIVERY ENHANCEMENT OR EXTRACTION OF EXTRACELLULAR FLUIDS” (The University of Nottingham, priority 2022, published 2025) come the findings set out here.

Data set [1] concerns all three cell lines. The data set is described as follows: MTS metabolic activity in all three cell lines. In kind it is cell-based, human. The settings on record: 200 μM. On the procedure: The viability of Calu-3 cells was determined by a chromogenic MTS method based on the measuring of mitochondrial respiration, assessed by the reduction of 3-(4,5-dimethylthiazol-2-yl)-5-(3-carboxymethoxyphenyl)-2-(4-sulfophenyl)-2H-tetrazolium to formazan. Calu-3 cells were cultured in a 96-well plate (CellTiter 96® Aqueous, Promega) at a density of 10^4 cells per well and incubated at 37° C., 5% CO2 for 24 hours. After 24 hours, the medium was replaced with 100 μl of test compounds dissolved in HBSS and then cells were incubated for 6 hours. HBSS and Triton X-100 (0.1% v/v in HBSS) were used as the negative and positive controls respectively. Bathing solutions were then aspirated and cells washed with PBS. Then culture medium (100 μl at 37° C.) plus MTS reagent (20 μl) were added into each well and cells were incubated for 2 hours. Absorbance at 492 was measured using a Dynex absorbance microplate reader (Dynex Technologies, USA) and converted into a percentage metabolic rate.
No significant reduction in cell metabolic activity was observed. Cell viability of >75% was retained in all cases.

Data set [2] relates to Calu-3 cell layers. In kind it is cell-based, human. The conditions noted are these: 3OC12-HSL 200 μM. On the procedure:
FIG. 2: Macromolecular therapeutics transported across Calu-3 cell layers in the absence (dashed line) and presence (line) of 3OC12-HSL transported into the basolateral chamber over a period of five hours. Permeability experiments were initiated by applying 0.5 ml of the solutions (250 μg/ml Aflibercept/Bevacizumab/or Doxorubicin diluted in HBSS/HEPES) to the apical side of the cells (donor compartment of the Transwell) with or without 3OC12-HSL (200 μM). Drug permeability was determined by sampling the basolateral solution at regular time intervals. Data points are expressed as means±SEM, derived from three replicates in triplicate. p values of <0.05 were considered statistically significant. *, ** and *** denote p<0.05, p<0.01 and p<0.001, respectively.
Calu-3 cells obtained from American Type Culture Collection, USA were cultured using Dulbecco's Modified Eagle Medium (DMEM) supplemented with penicillin (100 U/mL), streptomycin (0.1 mg/mL), amphotericin (0.25 μg/mL), non-essential amino acids (NEM, 1%) and Fetal Bovine Serum (FBS, 10% v/v, Sigma-Aldrich, UK). The human-derived RPE cell line ARPE-19 was obtained from American Type Culture Collection. […]
Three polarised epithelial in-vitro tissue models, including lung epithelium (Calu-3), retinal pigment epithelium (ARPE-19) and intestinal epithelial (Caco-2) were used to study the efficiency of 200 μM 3OC12-HSL as a paracellular permeability enhancer for three different drugs: bevacizumab, aflibercept and doxorubicin (applied concentrations 250 μg/mL). The amount of drugs transported was determined via the conversion of fluorescence intensity to amount (μg or ng), using calibration curves constructed via serial standard dilutions. […]
Permeability experiments were initiated by applying 0.5 mL of the test solutions to the apical side of the cells (donor compartment of the Transwell®). […] Drug permeability was determined by sampling the basolateral solution at regular time intervals. […]

The test system of data set [3] is ZO-1. The data set is described as follows: ZO-1 immunostaining and confocal microscopy of Calu-3 cell layers. In kind it is cell-based, human. The conditions noted are these: 200 μM, one hour, vs vehicle 0.15% DMSO. The method, then: To visualise the effect of 3OC12-HSL and C7 PQS on tight junction integrity in Calu-3 cell layers, ZO-1, immunostaining and confocal microscopy was performed on cell layers treated by 200 μM 3OC12-HSL and C7 PQS and control (0.15% DMSO in HBSS) for one hour. Confluent cell monolayers were washed with PBS and fixed in 4% paraformaldehyde in PBS for approximately 10 min at room temperature. Cells were then washed 3 times with PBS and permeabilised by incubating with Triton X-100 (0.1% v/v in PBS) for 10 min. Cells were then washed with PBS, followed by the application of 1% BSA/PBS for approximately 1 hour. Thereafter, BSA/PBS solution was aspirated and replaced with mouse, anti-human ZO-1 (primary) antibody, diluted in 1% BSA/PBS to a final concentration of 100 μg/ml. Cell samples were incubated with the primary antibody for 2 hours. The primary antibody solution was then removed and cells washed with PBS (5 times). FITC-labelled goat, anti-mouse (secondary) antibody, diluted according to manufacturer's instructions in 1% BSA/PBS was then applied to the cells for 1 hour. The secondary antibody solution was then aspirated and cells washed with PBS three times. […]

Data set [4] has as its system human primary lung epithelium. Nature of the data set: Human primary lung epithelium, air-liquid interface culture: TEER, FD4 and mAb delivery. In kind it is cell-based.

Turning to `CCCCCCCCCC(=O)CC(=O)N[C@H]1CCOC1=O` [Agent 3OC12-HSL, N-(3-oxododecanoyl) homoserine lactone], in data set [1], the “metabolic activity compared to the negative control” value was “did not change the metabolic activity”. Also, in data set [2] (aflibercept 250 μg/ml), the “enhancement of aflibercept transport by 3OC12-HSL” value worked out at 18 fold. Besides, the “enhancement of bevacizumab transport by 3OC12-HSL” value in data set [2] (bevacizumab 250 μg/ml) was determined as 10 fold. In data set [2] (doxorubicin 250 μg/ml, after 5 hours), the “enhancement of doxorubicin transport by 3OC12-HSL” value was found to be 17 fold. For the same molecule, in data set [3], the “ZO-1 distribution at tight junctions” value is on record as “considerable dislocation of ZO-1 proteins”. Also, in data set [4], the “TEER (electrical resistance) upon agent exposure” value is “temporarily reduced” and the “mAb (Mepolizumab) delivery upon agent exposure” value is reported as “increased”.
